Results on 19 compounds are retold here after patent publication US9127044B2, “Cyclic depsipeptides” (NOVARTIS AG, priority 2007, dated 2015).

Assay [1] has as its target T1, Human neutrophil elastase (Homo sapiens, UniProt P08246).
T1 construct: purchased Elastin Products Company, Inc. (EPC, Owensville, USA) SE563
T1 sequence (P08246 30-267): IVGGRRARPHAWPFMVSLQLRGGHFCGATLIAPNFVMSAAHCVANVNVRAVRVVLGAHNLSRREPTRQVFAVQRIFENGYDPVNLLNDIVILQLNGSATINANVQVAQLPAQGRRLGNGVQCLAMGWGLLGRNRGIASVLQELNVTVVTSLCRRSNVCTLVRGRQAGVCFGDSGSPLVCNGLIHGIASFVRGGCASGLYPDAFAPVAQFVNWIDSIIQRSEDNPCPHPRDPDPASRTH
The assay can be described thus: HNE inhibitory activity in vitro (fluorescence-quenched substrate). It counts as biochemical. As for the experimental part:
Human neutrophil elastase (cat. no. SE563) is purchased from Elastin Products Company, Inc. (EPC, Owensville, USA). The dry powder (purity >95% stated by the supplier) was dissolved in 20 mM sodium acetate buffer, pH 5.0, 50% (v/v) glycerol, and frozen at −80° C. in aliquots.
The fluorescence-quenched substrate (DABCYL-Ser-Glu-Val^Asn-Leu-Asp-Ala-Glu-Phe-EDANS, where ^ indicates the scissile bond, identified by MS analysis) was purchased from Bachem AG (Bubendorf, Switzerland), and kept as a 5 mM stock solution in DMSO at −20° C. All other chemicals were of analytical grade.
Enzymatic reactions were conducted in 100 mM Tris/HCl buffer at pH 7.5, containing 500 mM NaCl, and 0.05% (w/v) CHAPS.
All protein and peptide containing solutions are handled in siliconized tubes (Life Systems Design, Merenschwand, Switzerland).
The compound solutions as well as the enzyme and the substrate solutions are transferred to the 384-well plates (black Cliniplate; cat. no. 95040020 Labsystems Oy, Finland) by means of a CyBi-Well 96-channel pipettor (CyBio AG, Jena, Germany).
(§1) For fluorescence intensity (FI) measurements an Ultra Evolution reader (TECAN, Maennedorf, Switzerland) is used. The instrument is equipped with a combination of a 350 nm (20 nm bandwidth) and a 500 nm (25 nm bandwidth) bandpass filter for fluorescence excitation and emission acquisition, respectively. To increase the signal:background ratio, an appropriate dichroic mirror is employed. The optical filters and the dichroic mirror are purchased from TECAN. The fluorophores in each well are excited by three flashes per measurement.

The next assay concerns the target human kallikrein 7 (Homo sapiens, UniProt P49862). The assay can be described thus: Kallikrein-7 inhibitory activity in vitro (fluorescence-quenched substrate). It is filed as biochemical. As for the experimental part: (§2) IC50 for human kallikrein can be measured using the fluorescence-quenched substrate Ac-Glu-Asp(EDANS)-Lys-Pro-Ale-Leu-Phe^Arg-Leu-Gly-Lys(DABCYL)-Glu-NH2 (where ^ indicates the scissile bond, identified by MS analysis) which can be purchased from Biosyntan (Berlin, Germany). Enzymatic reactions are conducted in 50 mM sodium citrate buffer at pH 5.6 containing 150 mM NaCl and 0.05% (w/v) CHAPS. For the determination of IC50 values the assay is performed at room temperature in 384-well plates. All final assay volumes are 30 μl. Test compounds are dissolved in 90% (v/v) DMSO/water and diluted in water (containing 0.05% (w/v) CHAPS) to 3-times the desired assay concentration. The 11 final compound concentrations are: 0.3 nM, 1 nM, 3 nM, 10 nM, 30 nM, 100 nM, 300 nM, 1 μM, 3 μM, 10 μM and 30 μM. For each assay, 10 μl water/CHAPS (±test compound) are added per well, followed by 10 μl protease solution (diluted with 1.5× assay buffer). The protease concentration in final assay solution is 0.2 nM (according to the enzyme concentrations determined by the Bradford method). After 1 hour of incubation at room temperature, the reaction is started by addition of 10 μl substrate solution (substrate dissolved in 1.5× assay buffer, final concentration is 2 μM). […] The IC50 value is calculated from the plot of percentage of inhibition vs. inhibitor concentration using non-linear regression analysis software (XLfit, Vers. 4.0; ID Business Solution Ltd., Guildford, Surrey, UK).
The fluorescence-quenched substrate Ac-Glu-Asp(EDANS)-Lys-Pro-Ale-Leu-Phe^Arg-Leu-Gly-Lys(DABCYL)-Glu-NH2 (where ^ indicates the scissile bond, identified by MS analysis) is purchased from Biosyntan (Berlin, Germany) and kept as a 5 mM stock solution in DMSO at −20° C. All other chemicals are of analytical grade.
Enzymatic reactions are conducted in 50 mM sodium citrate buffer at pH 5.6 containing 150 mM NaCl and 0.05% (w/v) CHAPS.
All protein and peptide containing solutions are handled in siliconized tubes (Life Systems Design, Merenschwand, Switzerland). The compound solutions as well as the enzyme and the substrate solutions are transferred to the 384-well plates (black Cliniplate; cat. no. 95040020 Labsystems Oy, Finland) by means of a CyBi-Well 96-channel pipettor (CyBio AG, Jena, Germany).
as §1
as §2, with “For” for “IC50 for human kallikrein can be measured using the fluorescence-quenched substrate Ac-Glu-Asp(EDANS)-Lys-Pro-Ale-Leu-Phe^Arg-Leu-Gly-Lys(DABCYL)-Glu-NH2 (where ^ indicates the scissile bond, identified by MS analysis) which can be purchased from Biosyntan (Berlin, Germany). Enzymatic reactions are conducted in 50 mM sodium citrate buffer at pH 5.6 containing 150 mM NaCl and 0.05% (w/v) CHAPS. For”, “volumes were” for “volumes are”, “concentration was” for “concentration is”

Setting [2] is: Table 11, read-out: human neutrophile elastase IC 50.
Setting [3] is: Table 11, read-out: hKallikrein7 IC 50.

The structures appear in SMILES notation. Like-named read-outs stand apart in the source and are kept apart here.

Chain of human kallikrein 7 (P49862 30-253): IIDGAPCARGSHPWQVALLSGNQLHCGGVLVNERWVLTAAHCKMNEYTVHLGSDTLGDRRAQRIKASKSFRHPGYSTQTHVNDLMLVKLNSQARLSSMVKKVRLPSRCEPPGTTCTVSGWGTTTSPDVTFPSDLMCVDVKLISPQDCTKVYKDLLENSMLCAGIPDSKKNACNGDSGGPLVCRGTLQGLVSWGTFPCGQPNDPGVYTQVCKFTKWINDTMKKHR

For `CCC(C)C1NC(=O)C(Cc2ccc(O)cc2)N(C)C(=O)C(C(C)CC)N2C(=O)C(CCC2OCC(F)(F)F)NC(=O)C(CC(C)C)NC(=O)C(NC(=O)C(CCC(N)=O)NC(=O)C(C)C)C(C)OC1=O` (centres unmarked) [example 7], the IC50 stood at 6 nM in assay [1] and 50 nM on human kallikrein 7 (hKallikrein7 IC 50, Table 11).

Take `CCC(C)[C@@H]1NC(=O)[C@H](Cc2ccc(O)cc2)N(C)C(=O)[C@H](Cc2ccccc2)N2C(=O)C(CC[C@@H]2O)NC(=O)[C@H](CC(C)C)NC(=O)[C@@H](NC(=O)[C@H](CCCNC(N)=O)NC(=O)C(C)C)[C@@H](C)OC1=O` (some centres unmarked) [formula XV]: the IC50 in assay [1] worked out at 80 nM; on human kallikrein 7 (hKallikrein7 IC 50, Table 11) it was 4 nM.

As for `CCC(C)C1NC(=O)C(Cc2ccc(O)cc2)N(C)C(=O)C(C(C)CC)N2C(=O)C(CCC2OC)NC(=O)C(CC(C)C)NC(=O)C(NC(=O)C(CCC(N)=O)NC(=O)C(C)C)C(C)OC1=O` (centres unmarked) [example 17], the IC50 in assay [1] came out at 7.5 nM; on human kallikrein 7 (hKallikrein7 IC 50, Table 11) it was 3 nM.

`C#CCOc1ccc(CC2C(=O)NC(C(C)CC)C(=O)OC(C)C(NC(=O)C(CCC(N)=O)NC(=O)C(C)C)C(=O)NC(CC(C)C)C(=O)NC3CCC(OCCC)N(C3=O)C(C(C)CC)C(=O)N2C)cc1` (centres unmarked) [example 41]: the values for the IC50 (in assay [1] (setting [2]); on human kallikrein 7 (setting [3])) were 1 nM and 2 nM, respectively.

Turning to `CCC(C)C1NC(=O)C(Cc2ccc(O)cc2)N(C)C(=O)C(C(C)CC)N2C(=O)C(CCC2OCCO)NC(=O)C(CC(C)C)NC(=O)C(NC(=O)C(CCC(N)=O)NC(=O)C(C)C)C(C)OC1=O` (centres unmarked) [example 14], the IC50 was determined as 5 nM in assay [1] and 10 nM on human kallikrein 7 (hKallikrein7 IC 50, Table 11).

With `CCCOC1CCC2NC(=O)C(CC(C)C)NC(=O)C(NC(=O)C(CCC(N)=O)NC(=O)C(C)C)C(C)OC(=O)C(C(C)CC)NC(=O)C(Cc3ccc(OCc4cc(C)n(C)n4)cc3)N(C)C(=O)C(C(C)CC)N1C2=O` (centres unmarked) [example 42], the IC50 (in assay [1] (setting [2]); on human kallikrein 7 (setting [3])) was 1 nM each time.

As for `CCCOC1CCC2NC(=O)C(CC(C)C)NC(=O)C(NC(=O)C(CCC(N)=O)NC(=O)C(C)C)C(C)OC(=O)C(C(C)CC)NC(=O)C(Cc3ccc(OCc4ccccc4)cc3)N(C)C(=O)C(C(C)CC)N1C2=O` (centres unmarked) [example 39], the IC50 in assay [1] (setting [2]) is 3.5 nM; at human kallikrein 7 (setting [3]), 8.5 nM.

Regarding `CCC(C)[C@@H]1NC(=O)[C@H](Cc2ccc(OC(=O)OCC(C)C)cc2)N(C)C(=O)[C@H](C(C)CC)N2CCCC(NC(=O)[C@H](CC(C)C)NC(=O)[C@@H](NC(=O)[C@H](CCC(N)=O)NC(=O)C(C)C)[C@@H](C)OC1=O)C2=O` (some centres unmarked) [example 27], the IC50 came out at 20 nM in assay [1] and 3 nM at human kallikrein 7 (hKallikrein7 IC 50, Table 11).

Regarding `CCCOC1CCC2NC(=O)C(CC(C)C)NC(=O)C(NC(=O)C(CCC(N)=O)NC(=O)C(C)C)C(C)OC(=O)C(C(C)CC)NC(=O)C(Cc3ccc(OCC=Cc4ccccc4)cc3)N(C)C(=O)C(C(C)CC)N1C2=O` (centres unmarked) [example 32], the figures for the IC50 (in assay [1] (setting [2]); on human kallikrein 7 (setting [3])) were 30 nM and 100 nM, respectively.

For the compound `CCOC(=O)Oc1ccc(C[C@H]2C(=O)N[C@@H](C(C)CC)C(=O)O[C@H](C)[C@H](NC(=O)[C@H](CCC(N)=O)NC(=O)C(C)C)C(=O)N[C@@H](CC(C)C)C(=O)NC3CCCN(C3=O)[C@@H](C(C)CC)C(=O)N2C)cc1` (some centres unmarked) [example 29], the IC50 worked out at 25 nM in assay [1] (setting [2]) and 3 nM at human kallikrein 7 (setting [3]).

Regarding `C#CCOC1CCC2NC(=O)C(CC(C)C)NC(=O)C(NC(=O)C(CCC(N)=O)NC(=O)C(C)C)C(C)OC(=O)C(C(C)CC)NC(=O)C(Cc3ccc(O)cc3)N(C)C(=O)C(C(C)CC)N1C2=O` (centres unmarked) [example 18], the IC50 was determined as 2.5 nM in assay [1] and 5 nM at human kallikrein 7 (hKallikrein7 IC 50, Table 11).

Regarding `CCCCCCOC(=O)Oc1ccc(CC2C(=O)NC(C(C)CC)C(=O)OC(C)C(NC(=O)C(CCC(N)=O)NC(=O)C(C)C)C(=O)NC(CC(C)C)C(=O)NC3CCC(O)N(C3=O)C(C(C)CC)C(=O)N2C)cc1` (centres unmarked) [example 26], the IC50 in assay [1] (setting [2]) turned out to be 4.5 nM; on human kallikrein 7 (setting [3]) it was 0.85 nM.

On to `CCC(C)[C@@H]1NC(=O)[C@H](Cc2ccc(O)cc2)N(C)C(=O)[C@H](C(C)CC)N2C(=O)C(CC[C@@H]2O)NC(=O)[C@H](CC(C)C)NC(=O)[C@@H](NC(=O)[C@H](CCC(N)=O)NC(=O)c2ccccc2)[C@@H](C)OC1=O` (some centres unmarked) [formula XIII], for which the IC50 in assay [1] was 30 nM; at human kallikrein 7 it was 0.7 nM.

`CCC(C)C1NC(=O)C(Cc2ccc(O)cc2)N(C)C(=O)C(C(C)CC)N2C(=O)C(CCC2OCCOC)NC(=O)C(CC(C)C)NC(=O)C(NC(=O)C(CCC(N)=O)NC(=O)C(C)C)C(C)OC1=O` (centres unmarked) [example 13]: the IC50 in assay [1] is 4 nM; at human kallikrein 7 (hKallikrein7 IC 50, Table 11) it was 6 nM.

On to `CCCOC1CCC2NC(=O)C(CC(C)C)NC(=O)C(NC(=O)C(CCC(N)=O)NC(=O)C(C)C)C(C)OC(=O)C(C(C)CC)NC(=O)C(Cc3ccc(OCC=C(C)C)cc3)N(C)C(=O)C(C(C)CC)N1C2=O` (centres unmarked) [example 38], for which the IC50 stood at 1.5 nM in assay [1] (setting [2]) and 4 nM at human kallikrein 7 (setting [3]).

Take `C=CCOc1ccc(CC2C(=O)NC(C(C)CC)C(=O)OC(C)C(NC(=O)C(CCC(N)=O)NC(=O)C(C)C)C(=O)NC(CC(C)C)C(=O)NC3CCC(OCCC)N(C3=O)C(C(C)CC)C(=O)N2C)cc1` (centres unmarked) [example 40]: the values for the IC50 (in assay [1] (setting [2]); on human kallikrein 7 (setting [3])) were 2.5 nM and 6.5 nM, respectively.

With `CCCOC1CCC2NC(=O)C(CC(C)C)NC(=O)C(NC(=O)C(CCC#N)NC(=O)C(C)C)C(C)OC(=O)C(C(C)CC)NC(=O)C(Cc3ccc(O)cc3)N(C)C(=O)C(C(C)CC)N1C2=O` (centres unmarked) [example 24], the IC50 is 4 nM in assay [1] (setting [2]) and 7 nM on human kallikrein 7 (setting [3]).

Consider `CCCCCCCCOC1CCC2NC(=O)C(CC(C)C)NC(=O)C(NC(=O)C(CCC(N)=O)NC(=O)C(C)C)C(C)OC(=O)C(C(C)CC)NC(=O)C(Cc3ccc(O)cc3)N(C)C(=O)C(C(C)CC)N1C2=O` (centres unmarked) [example 6], for which the IC50 is 55 nM in assay [1] and 95 nM on human kallikrein 7 (hKallikrein7 IC 50, Table 11).

Consider `CCCOC1CCC2NC(=O)C(CC(C)C)NC(=O)C(NC(=O)C(CCC(N)=O)NC(=O)C(C)C)C(C)OC(=O)C(C(C)CC)NC(=O)C(Cc3ccc(OC)cc3)N(C)C(=O)C(C(C)CC)N1C2=O` (centres unmarked) [example 37], for which the IC50 in assay [1] (setting [2]) was found to be 2.5 nM; at human kallikrein 7 (setting [3]) it was 4.5 nM.
